What was measured:
[1] = target: Serine/threonine-protein kinase MRCK gamma (Homo sapiens) (UniProt Q6DT37); conditions: Compound concentration 1000.0 nM
[2] = target: NUAK family SNF1-like kinase 1 (Homo sapiens) (UniProt O60285); conditions: Compound concentration 1000.0 nM
[3] = target: Serine/threonine-protein kinase D3 (Homo sapiens) (UniProt O94806); conditions: Compound concentration 1000.0 nM
[4] = target: Non-receptor tyrosine-protein kinase TYK2 (Homo sapiens) (UniProt P29597); conditions: Compound concentration 1000.0 nM
[5] = target: Cyclin-dependent kinase 7 (Homo sapiens, UniProt P50613); conditions: Compound concentration 1000.0 nM
[6] = test system: Tyrosine-protein kinase ABL1 (Homo sapiens), P00519 [F317L]; conditions: Compound concentration 1000.0 nM
[7] = target: Mitogen-activated protein kinase kinase kinase 9 (Homo sapiens) (UniProt P80192); conditions: Compound concentration 1000.0 nM
[8] = target: Insulin receptor-related protein (Homo sapiens) (UniProt P14616); conditions: Compound concentration 1000.0 nM
[9] = target: Dual serine/threonine and tyrosine protein kinase (Homo sapiens) (UniProt Q6XUX3); conditions: Compound concentration 1000.0 nM
[10] = target: Casein kinase I isoform gamma-1 (Homo sapiens) (UniProt Q9HCP0); conditions: Compound concentration 1000.0 nM
[11] = target: Tyrosine-protein kinase SYK (Homo sapiens) (UniProt P43405); conditions: Compound concentration 1000.0 nM
[12] = target: Serine/threonine-protein kinase pim-1 (Homo sapiens) (UniProt P11309); conditions: Compound concentration 1000.0 nM
[13] = target: Vascular endothelial growth factor receptor 2 (Homo sapiens) (UniProt P35968); conditions: Compound concentration 1000.0 nM
[14] = target: Activin receptor type-1B (Homo sapiens) (UniProt P36896); conditions: Compound concentration 1000.0 nM
[15] = target: Serine/threonine-protein kinase PAK 1 (Homo sapiens) (UniProt Q13153); conditions: Compound concentration 1000.0 nM
[16] = target: Cyclin-dependent kinase 11B (Homo sapiens) (UniProt P21127); conditions: Compound concentration 1000.0 nM
[17] = target: Mitogen-activated protein kinase 3 (Homo sapiens) (UniProt P27361); conditions: Compound concentration 1000.0 nM
[18] = target: Mitogen-activated protein kinase 1 (Homo sapiens) (UniProt P28482); conditions: Compound concentration 1000.0 nM
[19] = target: Serine/threonine-protein kinase NIM1 (Homo sapiens) (UniProt Q8IY84); conditions: Compound concentration 1000.0 nM
[20] = target: Tyrosine-protein kinase Fer (Homo sapiens) (UniProt P16591); conditions: Compound concentration 1000.0 nM
[21] = target: MAP kinase-activated protein kinase 2 (Homo sapiens) (UniProt P49137); conditions: Compound concentration 1000.0 nM
[22] = target: Serine/threonine-protein kinase MRCK alpha (Homo sapiens) (UniProt Q5VT25); conditions: Compound concentration 1000.0 nM
[23] = target: Tyrosine-protein kinase JAK3 (Homo sapiens) (UniProt P52333); conditions: Compound concentration 1000.0 nM
[24] = target: Calcium/calmodulin-dependent protein kinase type 1B (Homo sapiens, UniProt Q6P2M8); conditions: Compound concentration 1000.0 nM
[25] = target: Receptor-interacting serine/threonine-protein kinase 2 (Homo sapiens) (UniProt O43353); conditions: Compound concentration 1000.0 nM
[26] = target: T1, D(4) dopamine receptor (Homo sapiens) (UniProt P21917); conditions: Compound concentration 10.0 uM
T1 sequence (whole entry): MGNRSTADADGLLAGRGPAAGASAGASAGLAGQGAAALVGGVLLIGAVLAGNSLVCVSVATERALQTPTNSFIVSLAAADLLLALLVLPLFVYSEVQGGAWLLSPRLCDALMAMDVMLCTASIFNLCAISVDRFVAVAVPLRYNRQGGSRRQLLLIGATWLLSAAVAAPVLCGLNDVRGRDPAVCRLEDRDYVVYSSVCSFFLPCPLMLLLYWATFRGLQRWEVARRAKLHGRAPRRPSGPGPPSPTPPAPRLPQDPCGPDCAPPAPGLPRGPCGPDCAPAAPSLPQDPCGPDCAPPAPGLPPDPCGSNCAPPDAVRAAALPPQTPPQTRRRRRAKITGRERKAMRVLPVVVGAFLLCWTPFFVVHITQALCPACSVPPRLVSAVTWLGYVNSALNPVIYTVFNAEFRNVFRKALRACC

[27] = target: LIM domain kinase 2 (Homo sapiens) (UniProt P53671); conditions: Compound concentration 1000.0 nM
[28] = target: Ribosomal protein S6 kinase alpha-4 (Homo sapiens) (UniProt O75676); conditions: Compound concentration 1000.0 nM
[29] = test system: Tyrosine-protein kinase ABL1 (Homo sapiens), P00519 [F317I]; conditions: Compound concentration 1000.0 nM
[30] = test system: Mast/stem cell growth factor receptor Kit (Homo sapiens), P10721 [L576P]; conditions: Compound concentration 1000.0 nM
[31] = target: Delta-type opioid receptor (Homo sapiens) (UniProt P41143); conditions: Compound concentration 10.0 uM
[32] = test system: Tyrosine-protein kinase ABL1 (Homo sapiens), P00519 [E255K]; conditions: Compound concentration 1000.0 nM
[33] = target: Phosphatidylinositol 5-phosphate 4-kinase type-2 gamma (Homo sapiens) (UniProt Q8TBX8); conditions: Compound concentration 1000.0 nM
[34] = target: Serine/threonine-protein kinase 32A (Homo sapiens) (UniProt Q8WU08); conditions: Compound concentration 1000.0 nM
[35] = target: Serine/threonine-protein kinase ICK (Homo sapiens) (UniProt Q9UPZ9); conditions: Compound concentration 1000.0 nM
[36] = target: Serine/threonine-protein kinase MARK2 (Homo sapiens) (UniProt Q7KZI7); conditions: Compound concentration 1000.0 nM
[37] = target: Serine/threonine-protein kinase N1 (Homo sapiens) (UniProt Q16512); conditions: Compound concentration 1000.0 nM
[38] = target: Ephrin type-A receptor 7 (Homo sapiens) (UniProt Q15375); conditions: Compound concentration 1000.0 nM
[39] = target: Activin receptor type-1 (Homo sapiens) (UniProt Q04771); conditions: Compound concentration 1000.0 nM
[40] = target: Serine/threonine-protein kinase LATS2 (Homo sapiens) (UniProt Q9NRM7); conditions: Compound concentration 1000.0 nM

Serine/threonine-protein kinase D3 (Homo sapiens), sequence (O94806 whole entry): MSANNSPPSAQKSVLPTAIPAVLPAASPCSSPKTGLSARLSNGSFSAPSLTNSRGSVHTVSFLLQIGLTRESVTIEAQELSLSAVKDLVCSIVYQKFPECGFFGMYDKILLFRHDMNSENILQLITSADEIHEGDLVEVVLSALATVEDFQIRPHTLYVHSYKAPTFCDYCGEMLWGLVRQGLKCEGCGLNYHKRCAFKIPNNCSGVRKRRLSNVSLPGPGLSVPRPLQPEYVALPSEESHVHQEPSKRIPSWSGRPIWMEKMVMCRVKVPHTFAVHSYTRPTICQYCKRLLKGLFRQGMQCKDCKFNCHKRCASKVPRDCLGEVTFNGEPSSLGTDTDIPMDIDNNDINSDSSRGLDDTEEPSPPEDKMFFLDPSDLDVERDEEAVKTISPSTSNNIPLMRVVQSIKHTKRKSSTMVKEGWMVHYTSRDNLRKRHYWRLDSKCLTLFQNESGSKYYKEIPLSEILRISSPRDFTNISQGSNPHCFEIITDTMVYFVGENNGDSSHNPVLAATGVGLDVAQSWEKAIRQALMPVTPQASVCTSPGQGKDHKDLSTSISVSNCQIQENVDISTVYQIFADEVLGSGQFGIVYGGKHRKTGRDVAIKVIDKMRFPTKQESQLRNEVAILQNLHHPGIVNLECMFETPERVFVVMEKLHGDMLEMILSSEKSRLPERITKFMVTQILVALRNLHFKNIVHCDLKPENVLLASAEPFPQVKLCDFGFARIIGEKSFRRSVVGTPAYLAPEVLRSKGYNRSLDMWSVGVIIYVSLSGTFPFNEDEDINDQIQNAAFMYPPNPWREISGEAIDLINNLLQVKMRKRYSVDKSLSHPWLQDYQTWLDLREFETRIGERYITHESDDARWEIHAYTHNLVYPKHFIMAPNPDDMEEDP
Mitogen-activated protein kinase kinase kinase 9 (Homo sapiens), sequence (P80192 whole entry, looked up): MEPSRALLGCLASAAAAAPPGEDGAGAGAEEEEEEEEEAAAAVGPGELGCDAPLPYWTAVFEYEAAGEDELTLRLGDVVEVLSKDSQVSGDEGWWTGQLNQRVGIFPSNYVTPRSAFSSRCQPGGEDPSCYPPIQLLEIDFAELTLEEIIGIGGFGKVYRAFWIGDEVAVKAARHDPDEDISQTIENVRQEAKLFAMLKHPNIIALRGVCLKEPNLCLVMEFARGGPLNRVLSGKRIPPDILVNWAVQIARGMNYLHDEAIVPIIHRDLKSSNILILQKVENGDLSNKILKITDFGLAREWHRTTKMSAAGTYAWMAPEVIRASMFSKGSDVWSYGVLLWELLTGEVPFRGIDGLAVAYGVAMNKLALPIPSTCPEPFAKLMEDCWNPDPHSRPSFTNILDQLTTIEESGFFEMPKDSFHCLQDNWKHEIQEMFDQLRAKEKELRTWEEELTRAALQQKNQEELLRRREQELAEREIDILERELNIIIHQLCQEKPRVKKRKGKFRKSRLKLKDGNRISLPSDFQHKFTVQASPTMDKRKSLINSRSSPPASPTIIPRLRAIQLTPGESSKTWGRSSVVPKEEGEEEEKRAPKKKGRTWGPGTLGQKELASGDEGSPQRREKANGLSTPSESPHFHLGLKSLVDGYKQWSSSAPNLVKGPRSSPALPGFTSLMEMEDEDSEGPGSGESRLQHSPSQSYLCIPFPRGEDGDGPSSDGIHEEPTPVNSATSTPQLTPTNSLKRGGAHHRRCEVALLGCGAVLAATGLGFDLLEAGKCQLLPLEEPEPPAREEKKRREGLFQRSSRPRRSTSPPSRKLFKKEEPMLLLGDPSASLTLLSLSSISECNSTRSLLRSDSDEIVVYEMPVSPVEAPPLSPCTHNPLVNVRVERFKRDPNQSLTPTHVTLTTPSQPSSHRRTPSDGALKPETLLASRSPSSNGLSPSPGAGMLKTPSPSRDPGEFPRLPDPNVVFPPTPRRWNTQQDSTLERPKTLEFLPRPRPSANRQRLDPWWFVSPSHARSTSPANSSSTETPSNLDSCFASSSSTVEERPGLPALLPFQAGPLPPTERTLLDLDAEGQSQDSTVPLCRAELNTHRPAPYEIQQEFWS
Tyrosine-protein kinase ABL1 (Homo sapiens), P00519 [F317I], sequence (P00519 whole entry F317I): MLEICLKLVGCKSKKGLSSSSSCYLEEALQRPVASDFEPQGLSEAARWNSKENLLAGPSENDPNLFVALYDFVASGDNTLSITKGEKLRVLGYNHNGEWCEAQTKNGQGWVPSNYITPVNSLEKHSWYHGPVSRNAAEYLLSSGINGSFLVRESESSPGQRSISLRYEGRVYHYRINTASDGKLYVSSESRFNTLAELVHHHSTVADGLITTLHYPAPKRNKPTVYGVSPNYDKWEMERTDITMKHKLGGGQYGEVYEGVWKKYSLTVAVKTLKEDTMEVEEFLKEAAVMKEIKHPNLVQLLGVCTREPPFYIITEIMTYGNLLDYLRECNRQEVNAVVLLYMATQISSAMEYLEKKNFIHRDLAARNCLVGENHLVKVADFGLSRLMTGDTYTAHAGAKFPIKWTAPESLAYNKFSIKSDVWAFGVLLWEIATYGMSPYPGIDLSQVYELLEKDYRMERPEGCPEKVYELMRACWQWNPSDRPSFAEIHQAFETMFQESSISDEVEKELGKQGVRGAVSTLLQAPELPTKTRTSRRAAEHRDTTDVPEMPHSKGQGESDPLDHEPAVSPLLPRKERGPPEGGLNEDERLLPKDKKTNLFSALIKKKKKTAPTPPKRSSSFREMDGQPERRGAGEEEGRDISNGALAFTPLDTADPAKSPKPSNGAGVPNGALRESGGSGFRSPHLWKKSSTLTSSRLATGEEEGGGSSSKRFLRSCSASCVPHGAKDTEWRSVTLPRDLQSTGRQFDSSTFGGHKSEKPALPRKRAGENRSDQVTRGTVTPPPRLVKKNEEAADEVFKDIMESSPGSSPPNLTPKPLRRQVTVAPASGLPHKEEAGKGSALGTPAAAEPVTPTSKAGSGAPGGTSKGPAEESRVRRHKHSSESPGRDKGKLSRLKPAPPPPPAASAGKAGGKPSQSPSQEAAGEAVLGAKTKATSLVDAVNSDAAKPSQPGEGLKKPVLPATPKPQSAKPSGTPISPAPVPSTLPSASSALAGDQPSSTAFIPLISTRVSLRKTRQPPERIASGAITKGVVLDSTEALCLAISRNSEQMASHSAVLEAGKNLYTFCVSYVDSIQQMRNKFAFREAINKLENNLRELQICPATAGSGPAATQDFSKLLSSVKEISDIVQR
Serine/threonine-protein kinase pim-1 (Homo sapiens), sequence (P11309 whole entry, looked up): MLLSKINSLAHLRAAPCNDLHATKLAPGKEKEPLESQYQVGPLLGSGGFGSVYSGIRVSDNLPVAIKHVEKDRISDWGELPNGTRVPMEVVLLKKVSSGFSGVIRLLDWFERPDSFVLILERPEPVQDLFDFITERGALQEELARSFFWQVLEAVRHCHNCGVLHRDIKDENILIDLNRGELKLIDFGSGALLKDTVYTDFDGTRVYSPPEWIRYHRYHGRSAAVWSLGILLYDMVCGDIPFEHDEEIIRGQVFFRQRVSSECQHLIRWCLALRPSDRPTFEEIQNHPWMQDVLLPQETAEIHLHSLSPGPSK
Serine/threonine-protein kinase N1 (Homo sapiens), sequence (Q16512 2-942 limits assumed): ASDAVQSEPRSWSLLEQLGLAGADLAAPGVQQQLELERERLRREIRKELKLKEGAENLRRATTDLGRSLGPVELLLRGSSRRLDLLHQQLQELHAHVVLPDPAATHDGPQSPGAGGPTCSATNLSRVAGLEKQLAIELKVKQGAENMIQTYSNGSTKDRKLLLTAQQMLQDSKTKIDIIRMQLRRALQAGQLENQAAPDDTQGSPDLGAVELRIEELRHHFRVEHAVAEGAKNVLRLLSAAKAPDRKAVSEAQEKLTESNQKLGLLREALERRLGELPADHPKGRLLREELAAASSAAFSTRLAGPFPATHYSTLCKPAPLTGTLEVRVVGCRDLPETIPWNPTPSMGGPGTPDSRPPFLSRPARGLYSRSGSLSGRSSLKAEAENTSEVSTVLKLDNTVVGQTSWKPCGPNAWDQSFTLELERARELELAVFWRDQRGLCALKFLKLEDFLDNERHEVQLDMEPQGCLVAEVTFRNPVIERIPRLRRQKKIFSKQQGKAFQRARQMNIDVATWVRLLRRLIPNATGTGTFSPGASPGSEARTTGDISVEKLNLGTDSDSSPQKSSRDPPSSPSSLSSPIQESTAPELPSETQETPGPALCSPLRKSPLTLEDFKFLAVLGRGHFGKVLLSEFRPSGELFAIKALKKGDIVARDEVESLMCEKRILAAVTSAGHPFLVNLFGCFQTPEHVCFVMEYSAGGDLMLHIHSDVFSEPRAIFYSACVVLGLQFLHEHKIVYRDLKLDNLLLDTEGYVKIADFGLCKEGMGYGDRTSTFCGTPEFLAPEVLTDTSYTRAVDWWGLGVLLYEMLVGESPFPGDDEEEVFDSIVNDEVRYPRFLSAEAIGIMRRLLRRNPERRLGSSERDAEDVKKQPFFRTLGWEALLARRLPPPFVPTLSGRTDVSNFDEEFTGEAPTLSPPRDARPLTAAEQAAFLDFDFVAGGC
Delta-type opioid receptor (Homo sapiens), sequence (P41143 whole entry): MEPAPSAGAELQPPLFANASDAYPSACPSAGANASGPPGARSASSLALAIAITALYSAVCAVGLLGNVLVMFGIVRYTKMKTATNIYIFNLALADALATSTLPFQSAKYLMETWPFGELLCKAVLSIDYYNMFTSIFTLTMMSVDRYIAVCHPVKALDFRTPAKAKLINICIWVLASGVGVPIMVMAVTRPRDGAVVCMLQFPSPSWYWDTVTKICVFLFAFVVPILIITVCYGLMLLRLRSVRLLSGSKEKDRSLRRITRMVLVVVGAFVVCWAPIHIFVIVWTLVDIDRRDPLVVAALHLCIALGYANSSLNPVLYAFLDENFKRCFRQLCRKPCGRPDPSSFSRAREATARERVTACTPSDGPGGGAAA
Tyrosine-protein kinase ABL1 (Homo sapiens), P00519 [F317L], sequence (P00519 whole entry F317L): as the sequence (P00519 whole entry F317I) above, with I317L counted along it
Tyrosine-protein kinase ABL1 (Homo sapiens), P00519 [E255K], sequence (P00519 whole entry E255K): as the sequence (P00519 whole entry F317I) above, with E255K, I317F counted along it

Cn1cncc1[C@@](O)(COc1ccc(C#N)cc1-c1ccc(OC(F)(F)F)cc1)c1ccc(C#N)cc1 [A-108]
inactive: residual activity [1] 96% | residual activity [2] 100% | residual activity [3] 98% | residual activity [4] 92% | residual activity [5] 63% | residual activity [6] 100% | residual activity [7] 98% | residual activity [8] 96% | residual activity [9] 100% | residual activity [10] 91% | residual activity [11] 100% | residual activity [12] 100% | residual activity [13] 100% | residual activity [14] 100% | residual activity [15] 100% | residual activity [16] 92% | residual activity [17] 83% | residual activity [18] 91% | residual activity [19] 97% | residual activity [20] 100% | residual activity [21] 61% | residual activity [22] 81% | residual activity [23] 100% | residual activity [24] 100% | residual activity [25] 100% | inhibition [26] 6.23% | residual activity [27] 82% | residual activity [28] 93% | residual activity [29] 100% | residual activity [30] 95% | inhibition [31] 2.4% | residual activity [32] 72% | residual activity [33] 96% | residual activity [34] 75% | residual activity [35] 75% | residual activity [36] 100% | residual activity [37] 100% | residual activity [38] 100% | residual activity [39] 100% | residual activity [40] 100%

Cn1cncc1[C@](O)(COc1ccc(C#N)cc1-c1ccc(OC(F)(F)F)cc1)c1ccc(C#N)cc1 [ABT-100]
inactive: residual activity [1] 85% | residual activity [2] 81% | residual activity [3] 100% | residual activity [4] 56% | residual activity [5] 95% | residual activity [6] 100% | residual activity [7] 81% | residual activity [8] 93% | residual activity [9] 90% | residual activity [10] 90% | residual activity [11] 95% | residual activity [12] 96% | residual activity [13] 96% | residual activity [14] 87% | residual activity [15] 100% | residual activity [16] 100% | residual activity [17] 90% | residual activity [18] 90% | residual activity [19] 87% | residual activity [20] 83% | residual activity [21] 63% | residual activity [22] 78% | residual activity [23] 72% | residual activity [24] 60% | residual activity [25] 100% | inhibition [26] -1.32% | residual activity [27] 72% | residual activity [28] 89% | residual activity [29] 98% | residual activity [30] 100% | inhibition [31] -0.182% | residual activity [32] 94% | residual activity [33] 87% | residual activity [34] 100% | residual activity [35] 100% | residual activity [36] 95% | residual activity [37] 100% | residual activity [38] 91% | residual activity [39] 78% | residual activity [40] 100%

From ChEMBL document CHEMBL4507257, “Data for DCP probe ABT-100” (2021)
